pIC50: −log10 of the molar value. Activity calls are given as the source filed them. No cut-off for these calls is given here.
Tests used:
HepG2 [1] = test: Anticancer activity against human HepG2 cells assessed as inhibition of cell viability incubated for 72 hrs by MTT assay; type: functional, cell-based; conditions: HepG2, 72 h
[2] = Selectivity index, ratio of IC50 for cytotoxicity against human MRC5 cells to IC50 for anticancer activity against human HepG2 cells; type: toxicity, cell-based; conditions: MRC5 cells versus HepG2 cells, read-out: Ratio IC50
[3] = Cytotoxicity against human MRC5 cells assessed as inhibition of cell viability incubated for 72 hrs by MTT assay; type: toxicity, cell-based
HepG2 [4] = test: Induction of apoptosis in human HepG2 cells at 5 uM incubated for 72 hrs by Annexin V-FITC/PI staining based flow cytometry; type: functional, cell-based
HepG2 [5] = test: Potency index, ratio of Sorafenib IC50 to test compound IC50 for anticancer activity against human HepG2 cells assessed as inhibition of cell viability incubated for 72 hrs by MTT assay; type: functional

| SMILES | pIC50 (HepG2 [1]) | selectivity ratio [2] | IC50 at 72 h [3] [nM] | Activity (HepG2 [4]) | Ratio IC50 (HepG2 [5]) |
| --- | --- | --- | --- | --- | --- |
| COc1ccccc1-n1cc(COc2cccc(NC(=O)Nc3ccc(Cl)c(C(F)(F)F)c3)c2)nn1 | 4.95 | – | – | – | – |
| Cc1ccc(-n2cc(COc3cccc(NC(=O)Nc4ccc(Cl)c(C(F)(F)F)c4)c3)nn2)cc1 | 5.27 | – | – | – | – |
| O=C(Nc1cccc(OCc2cn(-c3cccc(F)c3)nn2)c1)Nc1ccc(Cl)c(C(F)(F)F)c1 | 5.67 | – | – | – | – |
| O=C(Nc1cccc(OCc2cn(-c3ccc(F)cc3)nn2)c1)Nc1ccc(Cl)c(C(F)(F)F)c1 | 5.87 | 3.52 | 4740 | – | – |
| COc1ccc(-n2cc(COc3cccc(NC(=O)Nc4ccc(Cl)c(C(F)(F)F)c4)c3)nn2)cc1 | 5.33 | – | – | – | – |
| O=C(Nc1cccc(OCc2cn(-c3ccc(C(F)(F)F)cc3)nn2)c1)Nc1ccc(Cl)c(C(F)(F)F)c1 | 5.74 | – | – | – | – |
| CNC(=O)c1cc(Oc2ccc(NC(=O)Nc3ccc(Cl)c(C(F)(F)F)c3)cc2)ccn1 [SORAFENIB] | – | – | 11100 | Active | – |
| CC(C)c1ccc(-n2cc(COc3cccc(NC(=O)Nc4ccc(Cl)c(C(F)(F)F)c4)c3)nn2)cc1 | 5.61 | – | – | – | – |
| O=C(Nc1cccc(OCc2cn(-c3ccccc3)nn2)c1)Nc1ccc(Cl)c(C(F)(F)F)c1 | 5.75 | 10.3 | 18400 | – | 2.8 |
| O=C(Nc1cccc(OCc2cn(-c3ccccc3F)nn2)c1)Nc1ccc(Cl)c(C(F)(F)F)c1 | 5.82 | – | – | – | – |
| O=C(Nc1cccc(OCc2cn(-c3ccc(I)cc3)nn2)c1)Nc1ccc(Cl)c(C(F)(F)F)c1 | 5.57 | 2.55 | 6840 | – | – |
| N#Cc1ccccc1-n1cc(COc2cccc(NC(=O)Nc3ccc(Cl)c(C(F)(F)F)c3)c2)nn1 | 5.71 | 8.89 | 17500 | – | – |
| CCc1cccc(-n2cc(COc3cccc(NC(=O)Nc4ccc(Cl)c(C(F)(F)F)c4)c3)nn2)c1 | 4.42 | – | – | – | – |
| O=C(Nc1cccc(OCc2cn(-c3cccc(Cl)c3)nn2)c1)Nc1ccc(Cl)c(C(F)(F)F)c1 | 5.69 | – | – | – | – |
| CC(C)c1cccc(-n2cc(COc3cccc(NC(=O)Nc4ccc(Cl)c(C(F)(F)F)c4)c3)nn2)c1 | 5.49 | 6.58 | 21400 | – | – |
| O=C(Nc1cccc(OCc2cn(-c3ccccc3Br)nn2)c1)Nc1ccc(Cl)c(C(F)(F)F)c1 | 5.55 | – | – | – | – |

| SMILES | pIC50 (HepG2 [1]) | selectivity ratio [2] | IC50 at 72 h [3] [nM] | Activity (HepG2 [4]) | Ratio IC50 (HepG2 [5]) |
| --- | --- | --- | --- | --- | --- |
| O=C(Nc1cccc(OCc2cn(-c3ccccc3I)nn2)c1)Nc1ccc(Cl)c(C(F)(F)F)c1 | 5.54 | 7.61 | 21900 | – | – |
| Cc1cccc(-n2cc(COc3cccc(NC(=O)Nc4ccc(Cl)c(C(F)(F)F)c4)c3)nn2)c1 | 5.14 | – | – | – | – |
| O=C(Nc1cccc(OCc2cn(-c3cccc(Br)c3)nn2)c1)Nc1ccc(Cl)c(C(F)(F)F)c1 | 5.98 | 11.5 | 11900 | Active | 5 |
| Cc1ccccc1-n1cc(COc2cccc(NC(=O)Nc3ccc(Cl)c(C(F)(F)F)c3)c2)nn1 | 5.46 | – | – | – | – |
| O=C(Nc1cccc(OCc2cn(-c3ccc(Br)cc3)nn2)c1)Nc1ccc(Cl)c(C(F)(F)F)c1 | 5.56 | 4.03 | 11000 | – | – |
| N#Cc1cccc(-n2cc(COc3cccc(NC(=O)Nc4ccc(Cl)c(C(F)(F)F)c4)c3)nn2)c1 | 5.56 | 1.07 | 2960 | – | – |
| O=C(Nc1cccc(OCc2cn(-c3ccccc3C(F)(F)F)nn2)c1)Nc1ccc(Cl)c(C(F)(F)F)c1 | 5.63 | 3.55 | 8230 | – | – |
| COc1cccc(-n2cc(COc3cccc(NC(=O)Nc4ccc(Cl)c(C(F)(F)F)c4)c3)nn2)c1 | 5.88 | 6.55 | 8570 | – | – |
| CCc1ccc(-n2cc(COc3cccc(NC(=O)Nc4ccc(Cl)c(C(F)(F)F)c4)c3)nn2)cc1 | 5.71 | – | – | – | – |
| N#Cc1ccc(-n2cc(COc3cccc(NC(=O)Nc4ccc(Cl)c(C(F)(F)F)c4)c3)nn2)cc1 | 5.53 | – | – | – | – |
| CCc1ccccc1-n1cc(COc2cccc(NC(=O)Nc3ccc(Cl)c(C(F)(F)F)c3)c2)nn1 | 5.45 | – | – | – | – |
| O=C(Nc1cccc(OCc2cn(-c3ccccc3Cl)nn2)c1)Nc1ccc(Cl)c(C(F)(F)F)c1 | 5.71 | – | – | – | – |
| O=C(Nc1cccc(OCc2cn(-c3cccc(C(F)(F)F)c3)nn2)c1)Nc1ccc(Cl)c(C(F)(F)F)c1 | 5.90 | – | – | – | – |
| O=C(Nc1cccc(OCc2cn(-c3cccc(I)c3)nn2)c1)Nc1ccc(Cl)c(C(F)(F)F)c1 | 5.32 | – | – | – | – |
| CC(C)c1ccccc1-n1cc(COc2cccc(NC(=O)Nc3ccc(Cl)c(C(F)(F)F)c3)c2)nn1 | 5.72 | – | – | – | – |
| O=C(Nc1cccc(OCc2cn(-c3ccc(Cl)cc3)nn2)c1)Nc1ccc(Cl)c(C(F)(F)F)c1 | 5.60 | – | – | – | – |
